# Experimental data from patent US20250066347A1, “SUBSTITUTED THIAZOLIDINEDIONE DERIVATIVE COMPOUND, AND PHARMACEUTICAL COMPOSITION FOR PREVENTING OR TREATING CANCER, COMPRISING SAME” (MEDIFIC, INC., priority 2021, published 2025).
# Values joined by “and” are separate entries in the source; they are usually repeats but may differ in a detail not shown here. Identical values can stand only once. Like-named read-outs stand apart in the source and are kept apart here.
# Columns and labels:
# [1] = tested on: HOG-GSC brain tumor stem cell line; assay: In vivo efficacy evaluation, HOG-GSC orthotopic xenograft model; parameters: species or system BALB/c nude mouse; details: 25 mg/kg/day oral, day 16 after tumor transplantation
# Excerpt: First, HOG-GSC which is a brain tumor stem cell line was transplanted to a caudate putamen in the brain of a BALB/c nude mouse to establish am orthotropic xenograft model. After transplanting the brain tumor stem cells, the implementation compound of the present invention was orally administered from day 7 for 3 weeks with a schedule of 5 days of administration and 2 days of off medication, and only excipient was administration in the same manner to the control group. Thereafter, based on clinical findings resulting from the growth of the brain tumor in the animals, the survival period of the mouse was investigated, thereby confirming that the death of the animal due to a tumor was delayed by the administration of the implementation compound of the present invention. In addition, both the control mouse and the mouse to which the implementation compound of the present invention was administered were euthanized on day 16 after transplanting the tumor, their brain tissues were harvested, and the sizes of the brain tumor on the same date were compared.
# [2] = tested on: SREBP; assay: Cell-based assay system using a 6xSRE reporter vector (copGFP intensity) in HOG-GSC-6xSRE-copGFP_HIGH cells; parameters: dose or concentration left out as unconfirmed; details: copGFP intensity normalized to DMSO control = 1, 72 hours
# Excerpt: First, as shown in (a) of FIG. 1, SRE(5′-ATCACCCCAC-3′) 6 copies which are DNA seCuences to which a transcription factor, SREBP active form bonds were inserted into a minimal CMV promoter 5′ front end of a pGreenfire-Lenti-reporter vector to produce a 6xSRE reporter vector. The 6xSRE reporter vector is a vector system in which a minimal CMV promoter is activated only when SREBP in an activated form bonds to 6xSRE and copGFP is expressed, and after the vector was introduced to HOG-GSC which is a brain tumor stem cell, separation into a GFP high cell and a GFP low cell through FACS sorting was performed. Each of SREBP1a and SREBP1c in an active form was overexpressed in separated GFP-low cells (b of FIG. 1), and it was measured therefrom whether the expression amount of GFP was increased. As a result, it was confirmed that the overexpression of SREBP1a and SREBP1c active forms increased GFP expression by 43.30% and 93.49%, in separated GFP-low cells (c of FIG. 1). The separated GFP-high cells were treated with each of fatostatin and FGH10019 known to inhibit activity of DMSO and SREBP which was a control group to measure a change in the expression amount of GFP, and, as a result, it was confirmed that when treated with known materials, fatostatin and FGH10019, the expression of GFP was inhibited by up to 50% (d of FIG. 1).
# HOG-GSC-6xSRE-copGFP_HIGH cells were dispensed into a 96-well plate (Corning) at 5000/well, each well was treated […], and then all wells were photographed every 3 hours for 72 hours in an incubator (ThermoFisher) at […], 5% CO2, using real-time cell imaging equipment (Incucyte) to photograph changes in copGFP intensity.
# [3] = In vivo PK test, drug concentration in plasma after oral or intravenous administration; details: mouse
# Description: • Experimental Drug: Compound 11 • Excipient: 10% DMSO, 75% PEG400, 15% saline 1.2. Experimental system • mouse, CRljOri:CD1(ICR), SPF 6 weeks old (7 weeks old at the time of administration) 1.3. Administration route • oral administration (PO), intravenous administration (IV) 1.4. Administration method and number of administration
# After obtaining the mouse, the mouse was acclimatized for 5 days, and used in the experiment. An administration dose was 25 mg/kg by oral administration and 5 mg/kg by intravenous administration. A dosage for each individual was calculated based on the weight after fasting (on the day of administration), and the drug was orally administered once to an oral administration (PO) group using a disposable syringe (1 mL) with a zonde for oral administration attached, and intravenously administered to the tail vein of an intravenous administration (IV) group using a disposable syringe (1 mL).
# About 0.3 mL of blood was collected from a jugular vein with a 1 mL syringe (25G) treated with 3.8% sodium citrate (about 30˜40 μl), placed in one microtube (QSP, 1.5 mL), and centrifuged at 12,000 RPM/3 min to collect plasma. The plasma was frozen and stored at −80° C. until analysis, and all animals of a pharmacokinetic experiment group were euthanized after completing the blood collection.
# 580 μl of acetonitrile (including internal standard) was added to 20 μl of plasma/tissue, and centrifugation was performed at 4° C. at 15,000 rpm for 5 minutes with vortexing. A supernatant obtained after the centrifugation was analyzed with LC-MS/MS.
# PK parameter was calculated as a non-compartmental analysis model, using a phoenix WinNonlin 6.4 version (Pharsight, USA) program.
# [4] = CRljOri:CD1(ICR), 25 mg/kg oral administration, plasma
smiles,measurement,setting,value
"CC(C)(C)c1ccc(-c2cc(/C=C3\SC(=O)NC3=O)ccn2)cc1 [Compound 11, (Z)-5-((2-(4-(tert-butyl)phenyl)pyridin-4-yl)methylene)thiazolidine-2,4-dione]","Tumor cross-sectional area/brain cross-sectional ratio, Average",[1],0.02186
same,"Tumor cross-sectional area/brain cross-sectional ratio, individual",[1],0.04373 and 0
same,activity,[2],4.6%
same,concentration at 0.08 h,"[3]; CRljOri:CD1(ICR), plasma, iv, 5 mg/kg, intravenous 5 mg/kg, 0.08 hr, read-out: Drug concentration in plasma, Average",2560 ng/mL
same,concentration at 0.08 h,"[3]; CRljOri:CD1(ICR), plasma, iv, 5 mg/kg, intravenous 5 mg/kg, 0.08 hr, read-out: Drug concentration in plasma, Individual",2820 ng/mL
same,concentration at 0.25 h,"[3]; CRljOri:CD1(ICR), plasma, iv, 5 mg/kg, intravenous 5 mg/kg, 0.25 hr, read-out: Drug concentration in plasma, Average",2540 ng/mL
same,concentration at 0.25 h,"[3]; CRljOri:CD1(ICR), plasma, iv, 5 mg/kg, intravenous 5 mg/kg, 0.25 hr, read-out: Drug concentration in plasma, Individual",2600 ng/mL
same,concentration at 0.5 h,"[3]; CRljOri:CD1(ICR), plasma, iv, 5 mg/kg, intravenous 5 mg/kg, 0.5 hr, read-out: Drug concentration in plasma, Average",2260 ng/mL
same,concentration at 0.5 h,"[3]; CRljOri:CD1(ICR), plasma, iv, 5 mg/kg, intravenous 5 mg/kg, 0.5 hr, read-out: Drug concentration in plasma, Individual",2790 ng/mL
same,concentration at 1 h,"[3]; CRljOri:CD1(ICR), plasma, iv, 5 mg/kg, intravenous 5 mg/kg, 1 hr, read-out: Drug concentration in plasma, Average",2100 ng/mL
same,concentration at 1 h,"[3]; CRljOri:CD1(ICR), plasma, iv, 5 mg/kg, intravenous 5 mg/kg, 1 hr, read-out: Drug concentration in plasma, Individual",2590 ng/mL
same,concentration at 2 hr,"[3]; CRljOri:CD1(ICR), plasma, iv, 5 mg/kg, intravenous 5 mg/kg, 2 hr, read-out: Drug concentration in plasma, Average",1570 ng/mL
same,concentration at 2 hr,"[3]; CRljOri:CD1(ICR), plasma, iv, 5 mg/kg, intravenous 5 mg/kg, 2 hr, read-out: Drug concentration in plasma, Individual",1130 ng/mL
same,concentration at 4 h,"[3]; CRljOri:CD1(ICR), plasma, iv, 5 mg/kg, intravenous 5 mg/kg, 4 hr, read-out: Drug concentration in plasma, Average",1280 ng/mL
same,concentration at 4 h,"[3]; CRljOri:CD1(ICR), plasma, iv, 5 mg/kg, intravenous 5 mg/kg, 4 hr, read-out: Drug concentration in plasma, Individual",1050 ng/mL
same,concentration at 6 h,"[3]; CRljOri:CD1(ICR), plasma, iv, 5 mg/kg, intravenous 5 mg/kg, 6 hr",652 ng/mL
same,concentration at 8 h,"[3]; CRljOri:CD1(ICR), plasma, iv, 5 mg/kg, intravenous 5 mg/kg, 8 hr, read-out: Drug concentration in plasma, Average",575 ng/mL
same,concentration at 8 h,"[3]; CRljOri:CD1(ICR), plasma, iv, 5 mg/kg, intravenous 5 mg/kg, 8 hr, read-out: Drug concentration in plasma, Individual",424 ng/mL
same,concentration at 24 h,"[3]; CRljOri:CD1(ICR), plasma, iv, 5 mg/kg, intravenous 5 mg/kg, 24 hr, BQL = <1 ng/ml, ND = not detectable, read-out: Drug concentration in plasma, Individual",1.9 ng/mL
same,concentration at 24 h,"[3]; CRljOri:CD1(ICR), plasma, iv, 5 mg/kg, intravenous 5 mg/kg, 24 hr, read-out: Drug concentration in plasma, Average",1.8 ng/mL
same,concentration at 0.25 h,"[3]; CRljOri:CD1(ICR), plasma, po, 25 mg/kg, oral 25 mg/kg, 0.25 hr, read-out: Drug concentration in plasma, Average",2910 ng/mL
same,concentration at 0.5 h,"[3]; CRljOri:CD1(ICR), plasma, po, 25 mg/kg, oral 25 mg/kg, 0.5 hr, read-out: Drug concentration in plasma, Average",4420 ng/mL
same,concentration at 1 h,"[3]; CRljOri:CD1(ICR), plasma, po, 25 mg/kg, oral 25 mg/kg, 1 hr, read-out: Drug concentration in plasma, Average",3770 ng/mL
same,concentration at 2 h,"[3]; CRljOri:CD1(ICR), plasma, po, 25 mg/kg, oral 25 mg/kg, 2 hr",3870 ng/mL
same,concentration at 4 h,"[3]; CRljOri:CD1(ICR), plasma, po, 25 mg/kg, oral 25 mg/kg, 4 hr, read-out: Drug concentration in plasma, Average",3540 ng/mL
same,concentration at 6 h,"[3]; CRljOri:CD1(ICR), plasma, po, 25 mg/kg, oral 25 mg/kg, 6 hr",5440 ng/mL
same,concentration at 8 h,"[3]; CRljOri:CD1(ICR), plasma, po, 25 mg/kg, oral 25 mg/kg, 8 hr, read-out: Drug concentration in plasma, Average",5020 ng/mL
same,concentration at 8 h,"[3]; CRljOri:CD1(ICR), plasma, po, 25 mg/kg, oral 25 mg/kg, 8 hr, read-out: Drug concentration in plasma, Individual",3930 ng/mL
same,concentration at 24 h,"[3]; CRljOri:CD1(ICR), plasma, po, 25 mg/kg, oral 25 mg/kg, 24 hr, BQL = <1 ng/ml, read-out: Drug concentration in plasma, Individual",4.1 ng/mL
same,concentration at 24 h,"[3]; CRljOri:CD1(ICR), plasma, po, 25 mg/kg, oral 25 mg/kg, 24 hr, read-out: Drug concentration in plasma, Average",3.6 ng/mL
same,bioavailability,"[3]; CRljOri:CD1(ICR), plasma, 25 mg/kg oral compared with 5 mg/kg intravenous, read-out: bioavailability (BA)",62.4%
same,AUC(0-t),[3]; [4],39400 ng·h/mL
same,Cmax,[3]; [4],5040 ng/mL
same,Tmax,[3]; [4],1.6 h
same,half-life,[3]; [4],3.9 h
same,"Drug concentration in plasma, Individual","[3]; intravenous 5 mg/kg, 0.08 hr, 5 mg/kg",2800.0 ng/mL and 1900.0 ng/mL and 2700.0 ng/mL
same,"Drug concentration in plasma, Individual","[3]; intravenous 5 mg/kg, 0.25 hr, 5 mg/kg",2240.0 ng/mL and 2890.0 ng/mL and 2430.0 ng/mL
same,"Drug concentration in plasma, Individual","[3]; intravenous 5 mg/kg, 0.5 hr, 5 mg/kg",1890.0 ng/mL and 2360.0 ng/mL and 2000.0 ng/mL
same,"Drug concentration in plasma, Individual","[3]; intravenous 5 mg/kg, 1 hr, 5 mg/kg",1780.0 ng/mL and 2380.0 ng/mL and 1630.0 ng/mL
same,"Drug concentration in plasma, Individual","[3]; intravenous 5 mg/kg, 2 hr, 5 mg/kg",1420.0 ng/mL and 2240.0 ng/mL and 1480.0 ng/mL
same,"Drug concentration in plasma, Individual","[3]; intravenous 5 mg/kg, 4 hr, 5 mg/kg",1410.0 ng/mL and 1400.0 ng/mL and 1260.0 ng/mL
same,"Drug concentration in plasma, Individual","[3]; intravenous 5 mg/kg, 6 hr, 5 mg/kg",476.0 ng/mL and 491.0 ng/mL and 1080.0 ng/mL and 561.0 ng/mL
same,"Drug concentration in plasma, Individual","[3]; intravenous 5 mg/kg, 8 hr, 5 mg/kg",614.0 ng/mL and 618.0 ng/mL and 644.0 ng/mL
same,"Drug concentration in plasma, Individual","[3]; intravenous 5 mg/kg, 24 hr, BQL = <1 ng/ml, ND = not detectable, 5 mg/kg",1.7 ng/ml and BQL
same,"Drug concentration in plasma, Individual","[3]; oral 25 mg/kg, 0.25 hr, 25 mg/kg",3210.0 ng/mL and 2230.0 ng/mL and 4300.0 ng/mL and 2000.0 ng/mL
same,"Drug concentration in plasma, Individual","[3]; oral 25 mg/kg, 0.5 hr, 25 mg/kg",3590.0 ng/mL and 2340.0 ng/mL and 4750.0 ng/mL and 7010.0 ng/mL
same,"Drug concentration in plasma, Individual","[3]; oral 25 mg/kg, 1 hr, 25 mg/kg",4140.0 ng/mL and 2380.0 ng/mL and 2070.0 ng/mL and 6490.0 ng/mL
same,"Drug concentration in plasma, Individual","[3]; oral 25 mg/kg, 2 hr, 25 mg/kg",3270.0 ng/mL and 2030.0 ng/mL and 4100.0 ng/mL and 6070.0 ng/mL
same,"Drug concentration in plasma, Individual","[3]; oral 25 mg/kg, 4 hr, 25 mg/kg",2020.0 ng/mL and 4420.0 ng/mL and 2930.0 ng/mL and 4810.0 ng/mL
same,"Drug concentration in plasma, Individual","[3]; oral 25 mg/kg, 6 hr, 25 mg/kg",7260.0 ng/mL and 8180.0 ng/mL and 2630.0 ng/mL and 3680.0 ng/mL
same,"Drug concentration in plasma, Individual","[3]; oral 25 mg/kg, 8 hr, 25 mg/kg",4120.0 ng/mL and 4850.0 ng/mL and 7180.0 ng/mL
same,"Drug concentration in plasma, Individual","[3]; oral 25 mg/kg, 24 hr, BQL = <1 ng/ml, 25 mg/kg",BQL and 2.5 ng/ml and 4.1 ng/ml
